A short description of data set [1]: In vitro release of triclosan from films. Type of data set: physicochemical. The settings on record: in vitro testing.
The subject of data set [2] is Pseudomonas aeruginosa ATCC 10145. Put plainly: Zone of inhibition (ZOI) on Mueller Hinton agar. The format is cell-based. The following applies: 6 mm punches or filter disk, 36° C., 16-18 hours. The protocol:
(§1) Testing was performed with 4 different species of bacteria. […] S. aureus ATCC 25923; S. epidermidis ATCC 12228; Pseudomonas aeruginosa ATCC 10145; Enterobacter [NT] 29941 Glass culture tubes (VWR #:89001-480); Blank Disks, 6.35 mm diameter (VWR#: 90002-114); 6 mm Disposable Biopsy Punches (VWR#: 21909-144); Mueller Hinton agar dishes (VWR #: 100219-188); 0.5 McFarland turbidity standard (VWR #: 29447-318); dPBS (VWR #: 12001-664); Cotton swabs; Incubator; Thermometer; Bacterial hood […] Swirl the swab in this tube and when removing the swab, press it into the side of the tube above the liquid. • Inoculate Mueller-Hinton agar plates by streaking once down the middle of the plate. […] After streaking the entire plate, streak the swab around the rim of the plate. • Place filter disks/punches onto the dish. • Place in the 36° C. incubator within 15 minutes inoculating dish. • Incubate 16-18 hours. • Measure ZOI in millimeters using slide caliper (ZOI was measured a linear distance measured through the center point of the disk). FIG. 28 illustrates the minimum effective concentration and measured ZOI.

Data set [3] has as its system Enterobacter cloacae ATCC 29941. In words: Zone of inhibition (ZOI) on Mueller Hinton agar. The format is cell-based. The following applies: 6 mm punches or filter disk, 36° C., 16-18 hours. The method, then:
as §1

For data set [4], the system named is S. epidermidis ATCC 12228. In words: Zone of inhibition (ZOI) on Mueller Hinton agar. The format is cell-based. The settings on record: 6 mm punches or filter disk, 36° C., 16-18 hours. The method, then: as §1
The next data set deals with S. aureus ATCC 25923. In words: Zone of inhibition (ZOI) on Mueller Hinton agar. The settings on record: 6 mm punches or filter disk, 36° C., 16-18 hours. Type of data set: cell-based. The method, then: as §1
A short description of data set [5]: Implantation of sleeve-covered metal plates in sheep. The following applies: within 24 hours after insertion, sleeves.
Description: In one exemplary embodiment, implants were tested by implantation in sheep. The implants were metal plates with tubular, thin (0.05-0.08 mm), transparent polymer sleeves carefully slipped over the metal plates just before they were surgically inserted and attached to the bone. […] The sleeves were comprised of a synthetic copolyester (glycolide, caprolactone, trimethylenecarbonate, lactide) with aperture holes of 1.5 mm diameter equally spaced throughout.

With `Oc1cc(Cl)ccc1Oc1ccc(Cl)cc1Cl` [triclosan, 2,4,4′-trichloro-2′-hydroxydiphenyl ether], in data set [1], the initial burst release result is “minimal” and the “period of release from films” value was “slowly over a to 3 weeks period”.

Consider Gentamicin [120 ug gentamicin], for which the “Avg. ZOI (mm) P. aeruginosa” value in data set [2] (0.1-5% films data set) is reported as 26.7 mm; in data set [2] (13% film tested separately), 24.90 mm. Also, the “Avg. ZOI (mm) E. cloacae” value in data set [3] (0.1-5% films data set) was 22.4 mm; in data set [3] (13% film tested separately) it was 25.27 mm. In addition, the “Avg. ZOI (mm) S. epidermidis” value in data set [4] (0.1-5% films data set) is listed as 34.9 mm; in data set [4] (13% film tested separately) it was 31.37 mm. For the same compound, the “Avg. ZOI (mm) S. aureus” value in the data set with S. aureus ATCC 25923 (0.1-5% films data set) is recorded as 30.5 mm; in the data set with S. aureus ATCC 25923 (13% film tested separately) it was 28.73 mm.

Take gentamicin: the “gentamicin released into the adjacent tissue” value in data set [5] is recorded as “Approximately 50%”.
